Results reported in US9102669B2, “Substituted piperidinyl-pyridazinyl derivatives useful as SCD 1 inhibitors” (Janssen Pharmaceutica NV, priority 2011, dated 2015).
“And” between values parts separate entries of the source, which are not always exact repeats. Equal values may be shown once.

Columns and labels:
[1] = biological target: SCD1 (Rattus norvegicus (Rat), UniProt P07308); assay: SCD1 enzymatic assay in rat liver microsomes (RLM); assay type: biochemical; details: rat liver microsomes; for inhibition at 1 µM: 1 μM test compound, read-out: % Inh.@ 1 μM
SCD1 (Rattus norvegicus (Rat), UniProt P07308), sequence (P07308 whole entry): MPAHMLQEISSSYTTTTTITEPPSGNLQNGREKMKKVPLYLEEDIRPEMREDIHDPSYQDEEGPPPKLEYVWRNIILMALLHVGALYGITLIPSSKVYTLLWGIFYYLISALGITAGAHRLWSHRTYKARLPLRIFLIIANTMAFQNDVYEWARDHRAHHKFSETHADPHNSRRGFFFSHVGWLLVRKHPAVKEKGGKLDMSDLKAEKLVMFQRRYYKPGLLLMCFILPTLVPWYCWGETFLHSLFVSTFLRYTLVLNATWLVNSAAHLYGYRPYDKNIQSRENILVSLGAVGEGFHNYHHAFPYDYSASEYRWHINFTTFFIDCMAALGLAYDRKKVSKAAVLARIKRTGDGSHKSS
Procedure: Step 1: Preparation of Rat Liver Microsome (RLM):
Sprague Dawley rats from Charles River (200-225 g) underwent 2-cycle of fast-re-feeding (24-hour fast followed by 24-hour feeding with fat-free high carbohydrate diet, Reseach Diet, D00042802). The livers were removed and homogenized 1:4 (w/v) with pre-chilled, homogenizing buffer (10 mM Tris-HCl, 0.25 M sucrose, 1 mM EDTA, pH 7.4, supplemented with protease inhibitor cocktail). The homogenate was spun at 12,000×g for 15 min at 4° C. The supernatant was then re-centrifuged at 100,000×g for 60 min at 4° C. The pellet was re-suspended in 2 ml pre-chilled […] potassium phosphate buffer, pH 7.2, 10 mM EDTA at a concentration of 20 mg/ml. The resulting rat liver microsome (RLM) preparation was stored at −80° C.
Step 2: SCD1 Enzymatic Assay in RLM:
The SCD1 enzymatic assay was done in a volume of 50 μL using 10 μg of RLM (prepared as described above) in a 96-well polypropylene plate (enzyme reaction buffer contains 0.1 M K-Phosphate Buffer, 10 mM ATP, 6 mM MgCl2. 1 mM CoA, 1 mM β-NADH, 1.6 mM L-glutathione, 20 μM Stearoyl-CoA). Stearoyl-[9,10-^3H]-CoA (ARC-0390, 1 mCi/mL, 60 Ci/mmol,) was added at a final concentration of 2 μCi/mL. Test compound was then added to the reaction mixture at the selected concentration. After incubation at room temperature for 2 hours, 5 μL 1 N HCl was added to stop the reaction, followed by addition of 25 μL of 10% charcoal. The reaction mixture was then transferred to 96-well Multiscreen plate (Millipore, Cat#MSFCN6B50). […] The measured cpm values were fitted with Sigmoidal dose-response curve fit with Graphpad Prism.

[2] = biological target: SCD1 (Homo sapiens (Human), UniProt O00767); assay: SCD1 13C-palmitic acid assay in A431 cells; assay type: cell-based; details: read-out: A431 cells 13C-PA IC50
SCD1 (Homo sapiens (Human), UniProt O00767), sequence (O00767 whole entry): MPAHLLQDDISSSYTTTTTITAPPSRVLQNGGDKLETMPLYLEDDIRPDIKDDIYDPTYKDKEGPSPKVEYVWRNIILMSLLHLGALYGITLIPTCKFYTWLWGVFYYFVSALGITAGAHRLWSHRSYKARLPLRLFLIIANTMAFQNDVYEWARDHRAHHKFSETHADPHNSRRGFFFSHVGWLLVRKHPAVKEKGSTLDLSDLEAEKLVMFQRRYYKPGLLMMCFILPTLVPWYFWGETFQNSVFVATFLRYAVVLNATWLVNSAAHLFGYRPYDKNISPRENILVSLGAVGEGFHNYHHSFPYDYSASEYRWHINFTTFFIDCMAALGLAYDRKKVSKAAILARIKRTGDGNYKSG
Procedure: Human epithelial carcinoma A431 cells were seeded at 100,000 cells/well in complete growth medium (DMEM, Cellgro#10-013-CM, 4.5 g/L glucose, 10% FBS) in the presence of 0.05 mg/mL human insulin (Hannas Pharmaceutical Supply Co Inc, Humanlin 100 U/ml, 4 mg/ml) in 96-well tissue culture plate. 24 hr later, the cells were washed extensively with Assay Buffer (DMEM, Cellgro#10-013-CM, 4.5 g/L glucose, supplemented with 0.05 mg/mL Human Insulin and 0.1% Fatty Acid Free BSA). […] The cells were then returned to the tissue culture incubator (37° C. and 5% CO2) for 4 hrs. At the end of incubation, the cells were washed three times with 200 μL/well Hanks buffer (HBSS) and then stored at −20° C. until extraction.
For fatty acid extraction, after thawing out the plates, 40 μL of 1N KOH (containing 5 μM of internal standard 7,7,8,8-D4 palmitate) was added to each well and cell plates were incubated at 37° C. for 30 minutes. […] Acetonitrile (100 μL) was then added to extract fatty acids, followed by centrifugation at 3000 rpm for 10 minutes. 75 μL of extract was then transferred to a new glass vial in a 96-well cluster plate. 5 μL was injected for LC/MS analysis for detection of ^13C-palmitic acid and ^13C-palmitoleic acid. Formation of product ^13C-palmitoleic acid was determined as an index of SCD1 activity.
LC/MS analysis was performed as following. An Agilent 1100 Liquid Chromatographic System (Palo Alto, Calif.) consisting of a binary pump, a degasser and an autosampler was used. Separation of free fatty acids was performed on a Zorbax SB-C8 column (2.1×50 mm, particle size=3.5 μm). An isocratic elution was carried out with 10 mM triethylamine acetate in water: acetonitrile (3:7) at a flow rate of 0.3 mL/min. The column temperature was set at 30° C. and the sample injection volume was 5 μL. The LC run cycle was 4 min. A Micromass triple-quadrupole Quattro Micro mass […] (Waters, Beverly, Mass.) was interfaced with the LC system through a Z-spray electrospray ion source and was operated in the negative ion mode. Nitrogen was used as nebulizing gas, desolvation gas and cone curtain gas and argon was chosen as collision gas. The triple quadrupole MS source parameters were set as follows: capillary voltage, 3200V; cone voltage, 25V; exctractor 2V; source temperature, 120° C.; desolvation temperature, 300° C.; cone gas flow, 50 L/h; and desolvation gas flow, 700 L/h. […] MassLynx software version 4.0 was used for system control and data processing. The signal of U-^13C-palmitoleic acid was normalized to an internal standard.

| SMILES | inhibition at 1 µM [1] [%] | IC50 [1] [nM] | IC50 [2] |
| --- | --- | --- | --- |
| COc1ncc(-c2ccc(N3CCC(c4noc5ccc(F)cc45)CC3)nn2)cn1 [compound 34, 5-fluoro-3-(1-(6-(2-methoxypyrimidin-5-yl)pyridazin-3-yl)piperidin-4-yl)benzo[d]isoxazole] | 75 | 95 | 17 nM |
| OCc1ccc(-c2ccc(N3CCC(c4noc5ccc(F)cc45)CC3)nn2)cn1 [compound 35, (5-(6-(4-(5-fluorobenzo[d]isoxazol-3-yl)piperidin-1-yl)pyridazin-3-yl)pyridin-2-yl)methanol] | 99 | 8 | 2 nM |
| COc1ncc(-c2ccc(N3CCC(N4CCc5ccc(F)cc54)CC3)nn2)cn1 [compound 38, 6-fluoro-1-(1-(6-(2-methoxypyrimidin-5-yl)pyridazin-3-yl)piperidin-4-yl)indoline] | 97 | 11 | 34 nM |
| Cn1cc(-c2ccc(N3CCC(n4ncc5ccccc54)CC3)nn2)cn1 [compound 40, 1-(1-(6-(1-methyl-1H-pyrazol-4-yl)pyridazin-3-yl)piperidin-4-yl)-1H-indazole] | 92 | 92 | 45 nM |
| CC(=O)Nc1ccc(-c2ccc(N3CCC(N4CCc5ccc(F)cc54)CC3)nn2)cn1 [compound 45, N-(5-(6-(4-(6-fluoroindolin-1-yl)piperidin-1-yl)pyridazin-3-yl)pyridin-2-yl)acetamide] | 98 | 15 | 6 nM |
| CCOC(=O)Cn1cc(-c2ccc(N3CCC(N4CCc5ccc(F)cc54)CC3)nn2)cn1 [compound 50, ethyl 2-(4-(6-(4-(6-fluoroindolin-1-yl)piperidin-1-yl)pyridazin-3-yl)-1H-pyrazol-1-yl)acetate] | 93 | 31 | 44 nM |
| Cn1cc(-c2ccc(N3CCC(n4ncc5c(Cl)cccc54)CC3)nn2)cn1 [compound 61, 4-chloro-1-(1-(6-(1-methyl-1H-pyrazol-4-yl)pyridazin-3-yl)piperidin-4-yl)-1H-indazole] | 101 | 15 | 17 nM |
| NC(=O)Cn1cc(-c2ccc(N3CCC(N4CCc5ccc(F)cc54)CC3)nn2)cn1 [compound 69, 2-(4-(6-(4-(6-fluoroindolin-1-yl)piperidin-1-yl)pyridazin-3-yl)-1H-pyrazol-1-yl)acetamide] | 68 | 387 | 559 nM |
| Cn1cc(-c2ccc(N3CCC(n4ncc5c(F)cccc54)CC3)nn2)cn1 [compound 70, 4-fluoro-1-(1-(6-(1-methyl-1H-pyrazol-4-yl)pyridazin-3-yl)piperidin-4-yl)-1H-indazole] | 94 | 68 | 82 nM |
| Fc1ccc2c(c1)N(C1CCN(c3ccc(-c4cnn(CCN5CCOCC5)c4)nn3)CC1)CC2 [compound 71, 4-(2-(4-(6-(4-(6-fluoroindolin-1-yl)piperidin-1-yl)pyridazin-3-yl)-1H-pyrazol-1-yl)ethyl)morpholine] | 71 | 275 | > 1000 nM and 160 nM |
| Cn1cc(-c2ccc(N3CCC(n4ncc5cc(F)ccc54)CC3)nn2)cn1 [compound 73, 5-fluoro-1-(1-(6-(1-methyl-1H-pyrazol-4-yl)pyridazin-3-yl)piperidin-4-yl)-1H-indazole] | 86 | 145 | 262 nM |
| Cn1cc(-c2ccc(N3CCC(n4ncc5ccc(Cl)cc54)CC3)nn2)cn1 [compound 74, 6-chloro-1-(1-(6-(1-methyl-1H-pyrazol-4-yl)pyridazin-3-yl)piperidin-4-yl)-1H-indazole] | 96 | 16 | 22 nM |
| CCOCCn1cc(-c2ccc(N3CCC(c4noc5ccc(F)cc45)CC3)nn2)cn1 [compound 75, 3-(1-(6-(1-(2-ethoxyethyl)-1H-pyrazol-4-yl)pyridazin-3-yl)piperidin-4-yl)-5-fluorobenzo[d]isoxazole] | 98 | 21 | 81 nM |
